Assay results published in ChEMBL document CHEMBL3352801, “Synthesis and lipid-lowering evaluation of 3-methyl-1H-purine-2,6-dione derivatives as potent and orally available anti-obesity agents” (Eur J Med Chem, 2014).
≈ marks a conversion by molar mass, not a printed value.

Tests used:
3T3-L1 = assay: Inhibition of triglyceride accumulation in mouse 3T3L1 cells at 10 uM after 24 hrs; format: functional; settings: 3T3-L1, 24 h
Rattus norvegicus [1] = assay: Acute toxicity in Sprague-Dawley rat assessed as clinical signs at 2.5 g/kg, po as single dose measured after 7 days; format: organism-based; settings: in vivo, 2500 mg/kg, 168 h
Rattus norvegicus [2] = assay: Acute toxicity in Sprague-Dawley rat assessed as change in body weight at 2.5 g/kg, po as single dose measured after 7 days; format: organism-based; settings: in vivo, 2500 mg/kg, 168 h
Rattus norvegicus [3] = assay: Acute toxicity in Sprague-Dawley rat assessed as mortality at 2.5 g/kg, po as single dose measured after 7 days; format: organism-based; settings: in vivo, 2500 mg/kg, 168 h
Mus musculus [4] = assay: Antiobesity activity in diet-induced obese C57Bl/6 mouse assessed as reduction in body weight at 50 mg/kg/day, po for 4 weeks administered with high-fat diet; format: functional; parameters: scale not given: the % may be the effect or the level left
Mus musculus [5] = assay: Toxicity in diet-induced obese C57Bl/6 mouse assessed as change in food intake at 50 mg/kg/day, po for 4 weeks administered with high-fat diet; format: organism-based; parameters: route oral; settings: in vivo, 672 h
Mus musculus [6] = assay: Antiobesity activity in diet-induced obese C57Bl/6 mouse assessed as loss of liver weight at 50 mg/kg/day, po for 4 weeks administered with high-fat diet; format: functional
Mus musculus [7] = assay: Antiobesity activity in diet-induced obese C57Bl/6 mouse assessed as loss of epididymal fat mass at 50 mg/kg/day, po for 4 weeks administered with high-fat diet; format: functional
Mus musculus [8] = assay: Increase in glucose tolerance in diet-induced obese C57Bl/6 mouse assessed as time required for reducing plasma glucose to initial state at 50 mg/kg/day, po for 4 weeks by oral glucose tolerance test; format: functional
Mus musculus [9] = assay: Increase in glucose tolerance in diet-induced obese C57Bl/6 mouse assessed as rate of reducing plasma glucose at 50 mg/kg/day, po for 4 weeks by oral glucose tolerance test; format: functional
Mus musculus [10] = assay: Antiobesity activity in diet-induced obese C57Bl/6 mouse assessed as reduction in fasting blood glucose at 50 mg/kg/day, po for 4 weeks administered with high-fat diet (reference value: 5.0 +/- 1.30 mM); format: functional
Mus musculus [11] = assay: Antiobesity activity in diet-induced obese C57Bl/6 mouse assessed as change in insulin level at 50 mg/kg/day, po for 4 weeks administered with high-fat diet (reference value: 11.85 +/- 2.6 mU); format: functional
Mus musculus [12] = assay: Toxicity in diet-induced obese C57Bl/6 mouse assessed as change in ALT level at 50 mg/kg/day, po for 4 weeks administered with high-fat diet (reference value: 33.00 +/- 18.23 U/L); format: organism-based; parameters: route oral; settings: in vivo, 672 h
Mus musculus [13] = assay: Toxicity in diet-induced obese C57Bl/6 mouse assessed as change in AST level at 50 mg/kg/day, po for 4 weeks administered with high-fat diet (reference value: 125.00 +/- 35.00 U/L); format: organism-based; parameters: route oral; settings: in vivo, 672 h
Mus musculus [14] = assay: Antiobesity activity in diet-induced obese C57Bl/6 mouse assessed as reduction in triglyceride level at 50 mg/kg/day, po for 4 weeks administered with high-fat diet (reference value: 0.93 +/- 0.09 mM); format: functional
Mus musculus [15] = assay: Antiobesity activity in diet-induced obese C57Bl/6 mouse assessed as reduction in LDL level at 50 mg/kg/day, po for 4 weeks administered with high-fat diet (reference value: 0.14 +/- 0.07 mM); format: functional
Mus musculus [16] = assay: Antiobesity activity in diet-induced obese C57Bl/6 mouse assessed as increase in HDL level at 50 mg/kg/day, po for 4 weeks administered with high-fat diet (reference value: 0.60 +/- 0.17 mM); format: functional
Mus musculus [17] = assay: Antiobesity activity in diet-induced obese C57Bl/6 mouse assessed as reduction in FFA level at 50 mg/kg/day, po for 4 weeks administered with high-fat diet (reference value: 19.55 +/- 1.57 ng/L); format: functional
Mus musculus [18] = assay: Antiobesity activity in diet-induced obese C57Bl/6 mouse assessed as reduction in HOMA-IR value at 50 mg/kg/day, po for 4 weeks administered with high-fat diet (reference value: 3.06 +/- 0.85 no_unit); format: functional
Mus musculus [19] = assay: Antiobesity activity in diet-induced obese C57Bl/6 mouse assessed as reduction in hepatic triglyceride level at 50 mg/kg/day, po for 4 weeks administered with high-fat diet by Oil Red O staining-based histological method; format: functional; parameters: scale not given: the % may be the effect or the level left
[20] = Cmax in Sprague-Dawley rat at 5 mg/kg, iv; format: ADME, organism-based; parameters: dose 5 mg/kg, route intravenous; settings: in vivo
[21] = Tmax in Sprague-Dawley rat at 5 mg/kg, iv; format: ADME, organism-based; parameters: dose 5 mg/kg, route intravenous; settings: in vivo
[22] = Half life in Sprague-Dawley rat at 5 mg/kg, iv; format: ADME, organism-based; parameters: dose 5 mg/kg, route intravenous; settings: in vivo
[23] = AUC (0 to t) in Sprague-Dawley rat at 5 mg/kg, iv; format: ADME, organism-based; parameters: dose 5 mg/kg, route intravenous; settings: plasma
[24] = Volume of distribution in Sprague-Dawley rat at 5 mg/kg, iv; format: ADME, organism-based; parameters: dose 5 mg/kg, route intravenous; settings: in vivo
[25] = Total clearance in Sprague-Dawley rat at 5 mg/kg, iv; format: ADME, organism-based; parameters: dose 5 mg/kg, route intravenous; settings: in vivo
[26] = Cmax in Sprague-Dawley rat at 20 mg/kg, po; format: ADME, organism-based; parameters: dose 20 mg/kg, route oral; settings: in vivo
[27] = Tmax in Sprague-Dawley rat at 20 mg/kg, po; format: ADME, organism-based; parameters: dose 20 mg/kg, route oral; settings: in vivo
[28] = Half life in Sprague-Dawley rat at 20 mg/kg, po; format: ADME, organism-based; parameters: dose 20 mg/kg, route oral; settings: in vivo
[29] = AUC (0 to t) in Sprague-Dawley rat at 20 mg/kg, po; format: ADME, organism-based; parameters: dose 20 mg/kg, route oral; settings: plasma
Rattus norvegicus [30] = assay: Volume of distribution in Sprague-Dawley rat at 20 mg/kg, po; format: ADME, organism-based; parameters: dose 20 mg/kg, route oral; settings: in vivo
[31] = Total clearance in Sprague-Dawley rat at 20 mg/kg, po; format: ADME, organism-based; parameters: dose 20 mg/kg, route oral; settings: in vivo
[32] = Oral bioavailability in Sprague-Dawley rat at 20 mg/kg; format: ADME, organism-based; settings: in vivo
[33] = Solubility of the compound at room temperature; format: physicochemical

Structure (SMILES): CCn1c(-c2ccc(OCCN(C)c3ccccn3)cc2)nc2c1c(=O)n(Cc1ccccc1C#N)c(=O)n2C
- inhibition at 10 µM (3T3-L1): 64.5%
- Activity (Rattus norvegicus [1]): Non-toxic
- Activity (Rattus norvegicus [2]): Non-toxic
- Activity (Rattus norvegicus [3]): Non-toxic
- Activity (Mus musculus [4]): 15.96%
- Activity (Mus musculus [5]): Non-toxic
- Activity (Mus musculus [6]): 16.8%
- Activity (Mus musculus [7]): 21.65%
- Time (Mus musculus [8]): >40 min
- Activity (Mus musculus [9]): >2 %/min
- Activity (Mus musculus [10]): 5.15 mM
- Activity (Mus musculus [11]): 13.35 mU
- Activity (Mus musculus [12]): 20 U/L
- Activity (Mus musculus [13]): 120 U/L
- Activity (Mus musculus [14]): 1.02 mM
- Activity (Mus musculus [15]): 0.11 mM
- Activity (Mus musculus [16]): 1.96 mM
- Activity (Mus musculus [17]): 22.67 ng/L
- Activity (Mus musculus [18]): 3.06
- Activity (Mus musculus [19]): 7.17%
- Cmax [20]: 342 ng/mL
- Tmax [21]: 4.98 min
- half-life [22]: 8.83 h
- AUC(0-t) [23]: 404 ng·h/mL
- Vd [24]: 142 L/kg
- clearance [25]: 189 mL/min/kg
- Cmax [26]: 54.4 ng/mL
- Tmax [27]: 2.27 h
- half-life [28]: 6.3 h
- AUC(0-t) [29]: 453 ng·h/mL
- Vd (Rattus norvegicus [30]): 416.501 L/kg
- CL/F [31]: 1030 mL/min/kg
- bioavailability [32]: 28%
- solubility [33]: 1000 µg/mL (≈ 1870 µM)
